# Measurements taken from EP2759295A1, “Foam cell specific Liver X Receptor (LXR) alpha agonist, SIRT1 inhibitors as well as p300 inhibitors as pharmaceutically active agents” (Max-Planck-Gesellschaft zur Förderung der Wissenschaften …, priority 2013, dated 2014).
# Like-named read-outs stand apart in the source and are kept apart here.
# Columns and labels:
# [1] = biological target: T1, LXRα ligand binding domain (LBD) (Homo sapiens, UniProt Q13133); assay: dual luciferase reporter gene assay with LXRα ligand binding domain in HEK-293 cells; format: cell-based; details: +DMSO
# T1 construct: expressed in transfected cells; host or cells: HEK-293
# T1 sequence (Q13133 164-447): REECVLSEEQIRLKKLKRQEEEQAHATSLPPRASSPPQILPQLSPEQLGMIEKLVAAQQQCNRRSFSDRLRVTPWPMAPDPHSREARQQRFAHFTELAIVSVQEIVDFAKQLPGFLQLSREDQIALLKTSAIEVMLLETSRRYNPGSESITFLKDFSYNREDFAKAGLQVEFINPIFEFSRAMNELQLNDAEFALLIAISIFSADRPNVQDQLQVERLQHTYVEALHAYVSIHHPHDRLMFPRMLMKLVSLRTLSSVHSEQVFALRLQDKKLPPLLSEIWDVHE
# Experimental: The ligand binding domain (LBD) of LXRα (amino acids 164 to 447) or LXRβ (amino acids 154 to 461) was cloned into pBIND [Renilla/Amp] vector (Promega). Selection and amplification were performed in E-coli cells. Purification of the plasmids was performed with a plasmid purification kit (Qiagen). For transfection HEK-293 cells were plated in 96-well plates (TPP) at a density of 3.5 x 10^4 cells/well for 24 h. To investigate the ligand binding on LXRα ligand binding domain, 0.04 ng of renilla luciferase coding plasmide pGL4.75 (Promega), 0.04 ng of LXRα-LBD/GAL4-DBD plasmide and 80 ng of firefly luciferase coding plasmide pGL4.31 (Promega) were used in a total volume of 200 µL for each well. In LXRβ binding assay 40 ng of LXRβ-LBD/GAL4-DBD plasmide were applied in each transfection mix. Transfection was carried out for 4 h with Lipofectamine 2000 Transfection Reagent (Invitrogen) in Opti-MEM medium (Invitrogen). Ligand treatment was performed at different concentrations for 24 h. For lysis and detection dual-luciferase reporter gene assay system (Promega) and POLARstar Omega (BMG LABTECH) were used.
# SIRT1 = biological target: T2, SIRT1 (Homo sapiens, UniProt Q96EB6); assay: MALDI-TOF MS deacetylation assay; format: biochemical
# T2 construct: purchased Biomol International, Inc. / Enzo Life Sciences / BlueSky BioTech
# T2 sequence (Q96EB6 1-747): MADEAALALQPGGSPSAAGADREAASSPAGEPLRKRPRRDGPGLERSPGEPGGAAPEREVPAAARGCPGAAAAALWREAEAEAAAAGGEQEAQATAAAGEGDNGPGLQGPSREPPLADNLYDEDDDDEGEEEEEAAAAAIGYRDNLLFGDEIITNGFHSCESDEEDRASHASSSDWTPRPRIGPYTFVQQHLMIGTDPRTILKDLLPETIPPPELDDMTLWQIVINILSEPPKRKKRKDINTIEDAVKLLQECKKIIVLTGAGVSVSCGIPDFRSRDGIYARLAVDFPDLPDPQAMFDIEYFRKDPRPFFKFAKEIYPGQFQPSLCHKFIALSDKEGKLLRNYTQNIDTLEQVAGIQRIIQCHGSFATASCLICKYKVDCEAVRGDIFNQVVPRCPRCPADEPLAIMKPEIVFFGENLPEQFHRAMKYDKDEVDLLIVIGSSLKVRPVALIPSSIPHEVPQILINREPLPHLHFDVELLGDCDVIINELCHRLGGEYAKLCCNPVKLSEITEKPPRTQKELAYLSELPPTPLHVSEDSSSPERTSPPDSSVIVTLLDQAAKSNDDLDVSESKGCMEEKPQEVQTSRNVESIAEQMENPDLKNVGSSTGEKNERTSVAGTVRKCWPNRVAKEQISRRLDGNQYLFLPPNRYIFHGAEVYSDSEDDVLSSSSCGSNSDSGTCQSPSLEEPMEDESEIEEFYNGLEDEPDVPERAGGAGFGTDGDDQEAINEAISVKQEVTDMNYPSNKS
# Experimental: The assay was performed in a 20 µL reaction. 0.5 µM acetylated peptide and 120 µM NAD^+ in reaction buffer (50 mM Tris-acetate (pH 8), 137 mM NaCl, 2.7 mM KCI, 1 mM MgCl2, 5 mM DTT, 0.05 % BSA) were mixed with compound or DMSO (VC). Reactions were initiated by adding 10 nM of SIRT1. After incubation for 30 min at 37°C, reactions were stopped by formic acid and nicotinamide (f.c. 1% and 5 mM, respectively). Reactions were performed with histone H4 peptide and 1% DMSO unless stated otherwise. […]
# (§1) Acetylated and deacetylated peptides were mixed at different ratios in the respective buffer including stop solution and reaction components except the enzyme. Purification, preparation and MS detection were conducted in parallel to reaction samples. CCs were generated for IC50 value determination but not for the screening.
# (§2) Peptides were purified by Oasis HLB µElution Plates using a vacuum manifold [S. Sauer et al. J Chromatogr A (2004), 1049, 9-16]. Plate columns were conditioned by 70% ACN and equilibrated with 0.1% TFA. Samples were loaded, desalted by 0.1 % TFA and H2O and eluted in 70% ACN.
# (§3) For ultra thin layer (UTL), supernatant of saturated CHCA in ACN / H2O (2:1) and 0.1% TFA. was mixed with isopropanol (1:3) and was spread on a ground steel target. After solvent evaporated excess of CHCA was removed from target surface with a tissue [D. Fenyo et al. J Vis Exp (2007), 192]. The matrix used for sample preparation contained saturated CHCA in ACN / 0.1% TFA (1:2) or ACN / H2O (1:2) depending on peptide size [S. L. Cohen et al. Anal Chem (1996), 68, 31-37]. HLB eluted samples and matrix were mixed (1:4) and spotted on the UTL.
# (§4) Samples were measured automatically (AutoXecute software, Bruker Daltonik GmbH) using an ultraflex II MALDI-TOF mass spectrometer (Bruker Daltonik GmbH) in positive ion reflector mode. Laser power and detector gain were adjusted prior to every automatic run, which were performed in random walk movement.
# (§5) For assay optimization and IC50 determination, 1000 shots were accumulated in 100 satisfactory shot steps (fuzzy control). At least one peak within a defined mass range had to fulfill the following criteria for the spectra to be accumulated: Absolute (min.) intensity: 800; S/N: 15; peak width: 0.2.
# (§6) A script (Bruker Daltonik GmbH) was employed to analyze peptide peaks in a batch process (flexAnalysis software, Version 3.0, Bruker Daltonik GmbH). Percentage of de-/acetylation were calculated using the sum of the first four monoisotopic peak intensities. CC was generated by plotting experimental vs. calculated peptide acetylation. Measured sample values were interpolated with CC to determine de-/acetylation values (GraphPad Prism). When no CC was created, peak intensity ratios were generated. Verified single NP screening hits had to pass a peak ratio of ≤ 0.1 (deac/ac).
# (§7) As IC50 values were not gained at initial velocity conditions, values were corrected by a conversion factor according to Wu et al. (Table 5) [G. Wu et al. J Biomol Screen (2003), 8, 694-700].
# THP-1 cells = assay: TNFalpha ELISA in LPS-treated THP-1 cells; format: cell-based, human; details: 10 µM, LPS for 5 hours
# Experimental: THP-1 cells were seeded in a 24-well plate (1.2 x 10^6 cells/well) in a volume of 0.4 mL. Cells were treated with 10 µM NP 9 or DMSO (VC). After 1 h, 10 ng/mL LPS (Sigma, cat.no. L5293) were added and incubated for another 5 h. Medium was separated from the cells by centrifugation and used for detection of TNFalpha release by a human TNF alpha ELISA Kit [V. M. Nayagam et al. J Biomol Screen (2006), 11, 959-967].
# p300 [2] = biological target: T3, p300 (Homo sapiens, UniProt Q09472); assay: MALDI-TOF MS acetylation assay; format: biochemical
# T3 construct: purchased Biomol International, Inc. / Enzo Life Sciences
# T3 sequence (Q09472 whole entry, species assumed): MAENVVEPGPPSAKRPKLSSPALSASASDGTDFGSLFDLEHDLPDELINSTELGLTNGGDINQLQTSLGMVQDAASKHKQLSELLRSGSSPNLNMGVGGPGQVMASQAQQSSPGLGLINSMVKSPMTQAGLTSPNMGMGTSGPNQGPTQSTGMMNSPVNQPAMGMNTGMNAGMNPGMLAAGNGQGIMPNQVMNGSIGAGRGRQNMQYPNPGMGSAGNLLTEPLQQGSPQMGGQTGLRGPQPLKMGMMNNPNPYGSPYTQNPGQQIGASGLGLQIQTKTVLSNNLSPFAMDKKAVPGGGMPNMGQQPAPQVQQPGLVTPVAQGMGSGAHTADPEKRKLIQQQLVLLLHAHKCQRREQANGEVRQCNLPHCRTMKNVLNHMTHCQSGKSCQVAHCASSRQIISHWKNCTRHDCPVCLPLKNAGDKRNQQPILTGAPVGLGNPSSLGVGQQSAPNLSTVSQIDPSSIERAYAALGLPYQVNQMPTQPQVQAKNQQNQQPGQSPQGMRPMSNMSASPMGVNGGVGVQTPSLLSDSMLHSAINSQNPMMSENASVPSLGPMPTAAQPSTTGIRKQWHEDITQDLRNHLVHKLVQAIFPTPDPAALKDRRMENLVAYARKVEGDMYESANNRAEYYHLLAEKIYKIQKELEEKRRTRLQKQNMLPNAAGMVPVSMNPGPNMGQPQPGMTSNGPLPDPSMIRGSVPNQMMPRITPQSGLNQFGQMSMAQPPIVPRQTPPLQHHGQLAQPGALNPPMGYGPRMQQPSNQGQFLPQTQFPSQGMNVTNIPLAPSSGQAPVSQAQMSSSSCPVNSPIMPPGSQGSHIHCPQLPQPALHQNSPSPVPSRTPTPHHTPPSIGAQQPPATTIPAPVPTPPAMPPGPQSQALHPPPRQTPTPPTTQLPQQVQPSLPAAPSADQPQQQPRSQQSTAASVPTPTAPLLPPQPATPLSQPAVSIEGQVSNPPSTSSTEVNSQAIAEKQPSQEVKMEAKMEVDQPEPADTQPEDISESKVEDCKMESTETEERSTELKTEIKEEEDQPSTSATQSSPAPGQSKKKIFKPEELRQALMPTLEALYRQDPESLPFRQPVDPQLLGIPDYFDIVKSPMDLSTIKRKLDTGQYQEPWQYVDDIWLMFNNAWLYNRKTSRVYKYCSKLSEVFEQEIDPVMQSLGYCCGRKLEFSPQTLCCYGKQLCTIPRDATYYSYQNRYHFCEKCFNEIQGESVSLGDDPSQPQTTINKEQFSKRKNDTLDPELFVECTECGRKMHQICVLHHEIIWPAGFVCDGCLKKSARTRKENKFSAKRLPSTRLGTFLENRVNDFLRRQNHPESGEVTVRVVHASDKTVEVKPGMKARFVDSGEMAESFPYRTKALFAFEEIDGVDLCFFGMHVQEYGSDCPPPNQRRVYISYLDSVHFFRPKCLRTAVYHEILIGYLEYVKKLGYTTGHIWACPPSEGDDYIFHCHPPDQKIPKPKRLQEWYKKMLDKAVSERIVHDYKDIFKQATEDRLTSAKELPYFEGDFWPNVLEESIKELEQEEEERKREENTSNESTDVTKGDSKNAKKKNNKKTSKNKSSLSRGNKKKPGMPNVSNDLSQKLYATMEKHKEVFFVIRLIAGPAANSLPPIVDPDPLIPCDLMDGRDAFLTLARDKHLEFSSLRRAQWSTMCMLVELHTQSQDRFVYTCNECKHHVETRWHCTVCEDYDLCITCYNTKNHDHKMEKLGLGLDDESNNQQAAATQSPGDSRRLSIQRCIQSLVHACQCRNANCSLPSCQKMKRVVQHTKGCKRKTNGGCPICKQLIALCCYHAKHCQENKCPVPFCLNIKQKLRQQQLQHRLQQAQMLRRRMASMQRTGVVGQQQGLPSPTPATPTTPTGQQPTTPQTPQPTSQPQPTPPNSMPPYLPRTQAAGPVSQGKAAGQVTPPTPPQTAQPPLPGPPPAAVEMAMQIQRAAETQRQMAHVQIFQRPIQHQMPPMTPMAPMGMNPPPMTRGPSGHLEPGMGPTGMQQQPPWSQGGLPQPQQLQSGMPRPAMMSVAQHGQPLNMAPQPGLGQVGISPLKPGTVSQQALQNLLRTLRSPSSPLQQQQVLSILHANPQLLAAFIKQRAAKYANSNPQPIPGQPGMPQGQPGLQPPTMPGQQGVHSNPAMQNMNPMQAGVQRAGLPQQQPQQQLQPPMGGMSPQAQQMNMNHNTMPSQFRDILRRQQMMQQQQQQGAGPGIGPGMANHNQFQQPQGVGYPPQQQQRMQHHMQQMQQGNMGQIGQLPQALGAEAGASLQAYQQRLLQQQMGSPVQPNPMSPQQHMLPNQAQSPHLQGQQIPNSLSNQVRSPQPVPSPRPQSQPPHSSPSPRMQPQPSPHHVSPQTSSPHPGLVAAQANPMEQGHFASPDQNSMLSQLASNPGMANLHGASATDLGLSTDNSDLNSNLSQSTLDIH
# Experimental: Reactions were started by adding 0.5 µM HAT peptide and 120 µM AcCoA and incubated for 60 min at 30°C. After incubation at 30°C for up to 60 min, reactions were stopped by formic acid (f.c. 2%). Reaction buffer consisted of 50 mM HEPES (pH 7.9), 0.1 mM EDTA and 50 µg/mL BSA.
# as §1, §2, §3, §4, §5, §6, §7
# p300 [3] = biological target: T3, p300; assay: radioactivity based assay (Reaction Biology Corp.); format: biochemical
# Source text: IC50 for NP 9 was also validated by a radioactivity based assay, and performed by Reaction Biology Corp. (RBC).
# p300 [4] = biological target: T3, p300; details: literature (Balasubramanyam et al.); cited from earlier work
# [5] = Table 3, corrected values (see Table 5), read-out: IC50 values
# [6] = corrected by conversion factor according to Wu et al., read-out: Corrected IC50
# [7] = uncorrected, not at initial velocity conditions, read-out: Obtained IC50'
Structure (SMILES),IC50 (SIRT1; [5]) [µM],IC50 (SIRT1; [6]) [µM],IC50 (SIRT1; [7]) [µM],also measured
"CC(C)CC[C@@H](O)[C@@H](C)[C@H]1CC[C@H]2[C@@H]3CC=C4C[C@@H](O)CC[C@]4(C)[C@H]3CC[C@]12C [22R, 22(R)-hydroxycholesterol]",,,,EC50 ([1]; LXRα reporter gene activation): 13.3 µM; Efficacy ([1]; reporter gene transcription vs. T09): 4%
"COc1c(-c2c(O)cc(O)c3c(=O)cc(-c4ccc(O)cc4)oc23)c(O)cc2oc(-c3ccc(O)cc3)cc(=O)c12 [NP 2, 5',7,7'-trihydroxy-2,2'-bis(4-hydroxyphenyl)-5-methoxy-6,8'-bi(4H-chromene)-4,4'-dione]",28 ± 9,28 ± 9,39 ± 13,
"O=c1cc(-c2ccc(O)c(-c3c(O)cc(O)c4c(=O)cc(-c5ccc(O)cc5)oc34)c2)oc2cc(O)cc(O)c12 [NP 3, 8-(5-(5,7-dihydroxy-4-oxo-4H-chromen-2-yl)-2-hydroxyphenyl)-5,7-dihydroxy-2-(4-hydroxyphenyl)-4H-chromen-4-one]",36 ± 6,36 ± 6,50 ± 8,
"O=C1CC(c2ccccc2)Oc2c(Cc3cccc(O)c3O)c(O)c(Cc3cccc(O)c3O)c(O)c21 (stereo not shown) [NP 4, 6,8-bis(2,3-dihydroxybenzyl)-5,7-dihydroxy-2-phenylchroman-4-one]",46 ± 4,46 ± 4,63 ± 5,
"COC1C(OC(N)=O)C(O)C(Oc2ccc(-c3coc4cc(O)cc(O)c4c3=O)cc2)OC1(C)C (stereo not shown) [NP 5, 6-(4-(5,7-dihydroxy-4-oxo-4H-chromen-3-yl)phenoxy)-5-hydroxy-3-methoxy-2,2-dimethyl-tetrahydro-2H-pyran-4-yl carbamate]",49 ± 3,49 ± 3,68 ± 4,
"CC(C)=CCc1c(O)cc(O)c2c(=O)c(O)c(-c3ccc(O)c(O)c3)oc12 [NP 9, 2-(3,4-dihydroxyphenyl)-3,5,7-trihydroxy-8-(3-methylbut-2-enyl)-4H-chromen-4-one]",,,,"levels of TNFα secreted (THP-1 cells): significant anti-inflammatory effects by reducing the levels of TNFα; IC50 (p300 [2]; MALDI MS assay, read-out: IC50 value): 1.71 µM; IC50 (p300 [2]; [6]): 1.71 ± 0.07 µM; times stronger than anacardic acid (p300 [2]; p300 IC50 comparison): about 4 times; times stronger than garcinol (p300 [2]; p300 IC50 comparison): about 3.5 times; IC50 (p300 [2]; [7]): 2.35 ± 0.09 µM; IC50 (p300 [3]): 2.1 µM"
CCCCCCCCCCCCCCCc1cccc(O)c1C(=O)O [anacardic acid],,,,IC50 (p300 [4]): 8.5 µM
